Test results: patent US20040044075A1, “Alpha acyloxyacetamides for kallikrein and urokinase inhibition” (Genzyme Corporation, priority 2002, published 2004)
One block for each molecule: values may come before it.

Experiments:
[1] = system: Long Evans derived male or female rats; assay: Carageenan assay (hind paw edema); assay type: in vivo; conditions: for Inhibition (of hind paw edema): 3 hours after carageenan; for Edema: hind paw edema 3 hours after carageenan
Protocol: The assay was performed according to procedures disclosed in Winter et al, Proc. Exper. Biol. Med 111: 544 (1962), the entire teachings of which are incorporated herein by reference. […] Hind paw edema, as a measure of inflammation, was measured 3 hours after carageenan administration using a plethysmometer (Ugo Basile Catalog No. 7150) with water cell (25 mm diameter, Catalog No. 7157). Reduction of hind paw edema by 30% or more indicates significant acute anti-inflammatory activity.

Kallikrein = Kallikrein (Homo sapiens, UniProt P03952); assay: Kallikrein inhibition assay (fluorometric, H-Pro-Phe-Arg-AMC substrate); assay type: biochemical; conditions: 24° C, HEPES pH 7.5, 5% DMSO, fluorescence after ten minutes
Protocol: Kallikrein activity was assayed fluorometrically with an aminomethyl coumarin-containing (AMC-containing) substrate according to procedures described in Zimmerman et al., Proc. Natl. Acad. Sci. USA 75:750 (1978), the entire teachings of which are incorporated herein by reference. Specifically, enzyme assays with varying concentrations of the fluorogenic substrate H-Pro-Phe-Arg-AMC were conducted at 24° C in 0.05 M 4-(2-hydroxyethyl)-piperazineethanesulfonic acid (HEPES) buffer, pH 7.5/5% (vol/vol) dimethyl sulfoxide. The final volume was 0.1 ml in each assay. Fluorescence was read after ten minutes at 360 nm (activation wavelength) and 460 nm (emission wavelength).

[2] = system: ICR derived male or female mice; assay: Acetic acid writhing assay; assay type: in vivo; conditions: for % Reduction of Writhes: one hour before acetic acid
Protocol: The analgesic activity of a number of compounds of the present invention were tested in an acetic acid writhing assay disclosed in Inoue et al., Arzneimittel Forschung Drug Research 41:228 (1991), the entire teachings of which are incorporated herein by reference. The test substance was administered intraperitoneally (500, 100 and 20 mg/kg) to groups of 3 ICR derived male or female mice weighing 22±2 g one hour before the injection of acetic acid (3%, 10 ml/kg, IP). Reduction in the number of writhes by 50% or more per group of animals observed during the 5-10 minutes period after acetic acid administration, relative to a vehicle-treated control group (challenge with acetic acid), indicates analgesic activity.

male rats = assay: Rat model of inflammatory bowel disease (DNBS-induced distal colitis); assay type: in vivo
Protocol: Compounds were tested according to procedures described in C M Hogaboam et al., Eur. J. Pharmacol. 309:261 (1996), the entire teachings of which are incorporated herein by reference. Groups of 3 overnight fasted male rats weighing 150±10 grams were used. Distal colitis was induced by intra-colonic instillation of 0.5 ml/rat of DNBS (2,4-dinitrobenzene sulfonic acid, 60 mg/ml in ethanol 30%) after which air (2 ml) was gently injected through the cannula to ensure that the solution remained in the colon. Test compound was administered orally 24 and 2 hours before DNBS instillation and then daily for 5 days in total of 7 doses. The animals were sacrificed 24 hours after the final dose of test compound administration and each colon was removed and weighed. A 30 percent or more (≧30%) inhibition in net increase of colon to 100 grams body weight ratio, relative to vehicle-control-2 group is considered significant.

[3] = 4 mg/kg PO × 7, with DNBS, rats
[4] = 20 mg/kg PO × 7, with DNBS, rats
[5] = 75 mg/kg PO × 7, with DNBS, rats

Sequence of Kallikrein (P03952 whole entry): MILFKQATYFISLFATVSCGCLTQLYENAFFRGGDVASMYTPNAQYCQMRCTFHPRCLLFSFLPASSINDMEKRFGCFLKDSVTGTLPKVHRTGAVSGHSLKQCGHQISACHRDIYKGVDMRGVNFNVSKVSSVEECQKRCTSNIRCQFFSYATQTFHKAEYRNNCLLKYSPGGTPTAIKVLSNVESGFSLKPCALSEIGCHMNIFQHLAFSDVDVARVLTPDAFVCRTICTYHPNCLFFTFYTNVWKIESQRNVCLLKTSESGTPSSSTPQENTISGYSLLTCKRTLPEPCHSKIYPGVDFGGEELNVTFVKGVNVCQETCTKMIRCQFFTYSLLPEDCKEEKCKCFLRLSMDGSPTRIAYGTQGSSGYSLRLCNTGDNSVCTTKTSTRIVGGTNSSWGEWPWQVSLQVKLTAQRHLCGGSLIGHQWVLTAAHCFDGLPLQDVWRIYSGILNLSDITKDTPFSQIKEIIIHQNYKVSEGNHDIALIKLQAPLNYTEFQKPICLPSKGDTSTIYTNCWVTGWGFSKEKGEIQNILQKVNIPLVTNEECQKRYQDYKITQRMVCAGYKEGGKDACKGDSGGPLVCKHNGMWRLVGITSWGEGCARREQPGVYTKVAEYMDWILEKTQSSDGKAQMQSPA

Compound: COc1ccc2c(c1)c(CC(=O)O)c(C)n2C(=O)c1ccc(Cl)cc1 [Indomethacin, reference compound]
Inhibition (of hind paw edema) ([1]; 10 mg/kg IP): 53%
Edema ([1]; 10 mg/kg IP): 0.44 mL

IC50 (Kallikrein): 0.191 µM
Compound: COc1ccc(OC)c(C(=O)CCC(=O)OC(C(=O)NCc2cc(OC)c(OC)c(OC)c2)c2ccc(Br)cc2)c1 (stereo not shown) [Compound (26)]
% Reduction of Writhes ([2]; 20 mg/kg IP): 25%
% Reduction of Writhes ([2]; 100 mg/kg IP): 58%
% Reduction of Writhes ([2]; 500 mg/kg IP): 75%
significance of response in the acetic acid writhing test (in words) ([2]; both the 500 and 100 mg/kg doses IP): significant response
Inhibition (of hind paw edema) ([1]; 30 mg/kg IP): 0%
Edema ([1]; 30 mg/kg IP): 0.97 mL
Inhibition (of hind paw edema) ([1]; 100 mg/kg IP): 19%
Edema ([1]; 100 mg/kg IP): 0.76 mL
Inhibition (of hind paw edema) ([1]; 300 mg/kg IP): 34%
Edema ([1]; 300 mg/kg IP): 0.62 mL
dose response in the carageenan assay (in words) ([1]; 300, 100 and 30 mg/kg IP): dose responsive activity
statistical significance of response in the carageenan assay (in words) ([1]; highest dose (300 mg/kg) IP): statistically significant response
Ave. (average final weight of the colon in grams) (male rats; [3]): 1.061 grams
Inhibition (percent inhibition in net increase of colon weight relative to control Group 2) (male rats; [3]): 0%
Net Inc. (net increase in weight of the colon relative to control Group 1) (male rats; [3]): 0.574 grams
Ave. (average final weight of the colon in grams) (male rats; [4]): 0.947 grams
Inhibition (percent inhibition in net increase of colon weight relative to control Group 2) (male rats; [4]): 17%
Net Inc. (net increase in weight of the colon relative to control Group 1) (male rats; [4]): 0.460 grams
Ave. (average final weight of the colon in grams) (male rats; [5]): 0.857 grams
Inhibition (percent inhibition in net increase of colon weight relative to control Group 2) (male rats; [5]): 33%
Net Inc. (net increase in weight of the colon relative to control Group 1) (male rats; [5]): 0.370 grams
dose response in the rat model of inflammatory bowel disease (in words) (male rats; 75, 20 and 4 mg/kg PO × 7, rats): dose responsive activity
statistical significance of response in the rat model of inflammatory bowel disease (in words) (male rats; highest dose (75 mg/kg) PO × 7, rats): statistically significant response
activity in a rat model of inflammatory bowel disease (in words) (male rats; summary statement): activity

IC50 (Kallikrein): 0.364 µM
Compound: COc1cc(CNC(=O)C(OC(=O)CCOc2ccccc2)c2ccc(Br)cc2)cc(OC)c1OC (stereo not shown) [Compound (27)]
% Reduction of Writhes ([2]; 20 mg/kg IP): 8%
% Reduction of Writhes ([2]; 100 mg/kg IP): 25%
% Reduction of Writhes ([2]; 500 mg/kg IP): 92%
